Data reported in patent US11976069B2, “Inhibitors of histone deacetylase useful for the treatment or prevention of HIV infection” (Merck Sharp & Dohme LLC, priority 2019, dated 2024).
Like-named read-outs stand apart in the source and are kept apart here.

Tested on: KARN cells (Jurkat 2C4)
Test: KARN assay (luciferase induction)
Assay type: cell-based
Conditions: ~20 hr, 100% induction = 2 μM SAHA
Experimental: KARN cells (Jurkat 2C4) were licensed from the laboratory of Dr. John Kam, Case Western Reserve University, School of Medicine. […] An atmosphere of 5% CO2 and 90% humidity was used for all culture work. Cells were split and reseeded into T175 flasks at a density of 0.2×10^6 cells/ml, in 40 ml of media, every 3-4 days.
Day 1: After the 3-4 day growth period, the cells were transferred from the T175 flask to a 50 ml conical tube and gently pelleted at 1000 rpm for 5 minutes. […] These flasks were returned to the incubator.
Day 2: Cell Preparation: The next day, the cells were transferred from each T175 flask to an individual 50 ml conical tube and gently pelleted at 1000 rpm for 5 minutes. The cells were gently resuspended in assay media (30 ml) and pelleted again. […] The cells were counted using the ViCell (Beckman Coulter, Brea, Calif.) and diluted as necessary. A Multidrop (Combi, Thermo Scientific, Waltham, Mass.) with a sterile head was used to seed the cells into the wells of a 384-well solid black plate with lid (Perkin Elmer, Waltham, Mass., catalog number 6007660) at 4000 cells/30 μl/well for the 5% NHS assay media and 6000 cells/30 μl/well for 0.1% NHS assay. The plates were covered and returned to the incubator prior to compound addition.
Compound Preparation: Solutions of control inhibitor suberoylanilide hydroxamic acid (SAHA; Sigma, catalog number SML0061) and test compounds in 100% DMSO were titrated into 384-well polypropylene plates (Labcyte, San Jose, Calif., catalog number P-05525) using a 20-point dose response and 2-fold dilutions. The reference compounds, DMSO and SAHA were then added to the compound plate. Using the Access system (Labcyte), 120 nl of these inhibitor and control solutions were added to the individual wells of the plates containing the cells, and the plates were then returned to the incubator for ˜20 hr (range from 18-24 hr). The final high concentration for SAHA and the test compounds in the assays was 40 μM. The final DMSO concentration in all wells was 0.4%. The minimal induction reference compound used was DMSO and the maximal induction reference compound used was SAHA (2 μM final concentration in the assay).
Day 3: The luciferase detection reagent was prepared by transferring the contents of one bottle of Steady-Glo buffer to one bottle of Steady-Glo substrate (Steady-Glo Luciferase Assay System, Promega, Madison, […]., catalog number E2520), followed by gently mixing until the substrate was thoroughly dissolved and the solution was equilibrated to room temperature. The cell culture assay plates were removed from the incubator and brought to room temperature (15 min). The Steady-Glo Reagent was added to the plates (30 μl/well), which were then covered with a black lid and incubated for 10 minutes at room temperature. The plates were then read for luminescence on an Envision (Perkin Elmer) using the ultrasensitive mode (US LUM), […] and 384-well aperture. Luminescence counts in the DMSO reference wells were considered as 0% induction, while those in the 2 μM SAHA reference wells were considered as 100% induction. Dose response curves were plotted as test compound concentration (X-axis) vs. percent activation (Y-axis) using a 4-parameter fit based on the Levenberg-Marquardt algorithm.

[1] = Jurkat, read-out: Karn EC50 with 0.1% NHS, 0.1% normal human serum
[2] = Jurkat, read-out: Karn EC50 with 5% NHS, 5% normal human serum
[3] = read-out: Karn EC50 with 0.1% NHS, 0.1% normal human serum
[4] = read-out: Karn EC50 with 5% NHS, 5% normal human serum

Row | Molecule | EC50 [1] | EC50 [2] | EC50 [3] | EC50 [4]
1 | CCC(=O)CCCCC[C@H](NC(=O)[C@H]1CC12CCN(CC)CC2)c1[nH]c2nc1C(=O)NCCC/C=C/c1cccc-2c1 [Compound 15, (1S)-6-ethyl-N-{(1S)-7-oxo-1-[(11E)-6-oxo-3,7,18-triazatricyclo[11.3.1.1~2,5~]octadeca-1(17),2(18),4,11,13,15-hexaen-4-yl]nonyl}-6-azaspiro[2.5]octane-1-carboxamide] | 5.24 µM | 19.3 µM | – | –
2 | CCC(=O)CCCCCC1NC(=O)C2CC2N2CCC(CCCCCn3c(=O)ccc4cc(ccc43)-c3cnc1o3)CC2 [Compound 7, (11S,4S)-4-(6-oxooctyl)-61,62-dihydro-3-aza-5(2,5)-oxazola-6(6,1)-quinolina-12(4,1)-piperidina-1(1,2)-cyclopropanadodecaphane-62,2-dione] | – | – | 5.15 µM | 4.73 µM
3 | CCC(=O)CCCCC[C@@H]1NC(=O)[C@H]2CC23CCN(CCCCCCCCn2ccc4cc(c(OC)cc4c2=O)-c2cnc1[nH]2)CC3 [Compound 5, (1^1S,4S)-6^7-methoxy-4-(6-oxooctyl)-6^1,6^2-dihydro-5^1H-3-aza-6(6,2)-isoquinolina-15(4,1)-piperidina-5(2,5)-imidazola-1(1,2)-cyclopropanapentadecaphane-6^1,2-dione] | 0.011 µM | 0.012 µM | – | –
4 | (11S,4S)-4-(6-oxooctyl)-61,62-dihydro-3-aza-5(2,5)-oxazola-6(6,1)-quinolina-12(4,1)-piperidina-1(1,2)-cyclopropanadodecaphane-62,2-dione [Compound 8] | – | – | > 40 µM | > 40 µM
5 | CCC(=O)CCCCC[C@@H]1NC(=O)[C@H]2CC23CCN(CCCOCCCn2ccc4cc(ccc4c2=O)-c2cnc1[nH]2)CC3 [Compound 12, (3S,6S)-6-(6-oxooctyl)-22-oxa-5,8,18,26,33-pentaazahexacyclo[24.2.2.1˜7,10˜0.1˜11,15˜0.1˜14,18˜0.0˜1,3˜]tritriaconta-7,9,11(32),12,14,16-hexaene-4,31-dione] | 1.79 µM | 1.99 µM | – | –
